This is an account of results in ChEMBL document CHEMBL1201862, “PubChem BioAssay data set” (2004).

Test systems include OVCAR-3; HCT-15; MDA-MB-435; MOLT-4; 786-0; M14; K562; PC-3; ACHN; KM12; OVCAR-4; NCI-H226; CAKI-1; LOX IMVI; Malme-3M; SK-MEL-2; RPMI-8226; NCI-H460; A498; HL-60.
Holding throughout (assay): inhibition of tumour cell growth, NCI panel, 48 h

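In this assay, cells in 96-well plates receive the compound at five concentrations for 48 hours. Endpoints are linearly interpolated between the surrounding concentrations. GI50 is the concentration that inhibits growth by half.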 Calls of active or inactive are those of the source. Cut-off read from the data, not from the text of the source: active = GI50 up to about 1.1 µM and inactive = higher.

As to `O=C(O)C1CC(C2CCCCN2)CN2CCCCC12` (centres undefined), the GI50 is > 100 µM (inactive) in the test on OVCAR-3; greater than 100 µM in the test with HCT-15; > 100 µM (inactive) with MDA-MB-435; > 100 µM (inactive) with MOLT-4; > 100 µM (inactive) with 786-0; > 100 µM (inactive) in the test with M14. Moreover, the GI50 in the test on K562, with PC-3, in the test on ACHN, with KM12, in the test on OVCAR-4 and with NCI-H226 was > 100 µM (inactive) in each case. Also, the GI50 in the test with CAKI-1, with LOX IMVI, in the test with Malme-3M, in the test with SK-MEL-2, in the test on RPMI-8226 and with NCI-H460 was > 100 µM (inactive) in each case. For the same molecule, the GI50 with A498 is > 100 µM (inactive).

As for `COC(=O)C1CCC(=O)N1CN(C(C)=O)c1ccccc1Cl` (centres undefined), the GI50 with OVCAR-3 was > 100 µM (inactive); in the test on HCT-15 it was greater than 100 µM; in the test with MDA-MB-435, > 100 µM (inactive); in the test on MOLT-4, > 100 µM (inactive); in the test on 786-0 it was > 100 µM (inactive); with M14, > 100 µM (inactive). In addition, the GI50 with K562 was > 10 µM (inactive); in the test with PC-3, > 100 µM (inactive); with ACHN, > 100 µM (inactive); in the test with KM12, > 100 µM (inactive); with OVCAR-4, > 100 µM (inactive); in the test with NCI-H226, > 100 µM (inactive). Moreover, the GI50 in the test on CAKI-1, in the test with LOX IMVI, in the test with Malme-3M, with SK-MEL-2, in the test on RPMI-8226 and with NCI-H460 was > 100 µM (inactive) in each case. For the same molecule, in the test on A498, the GI50 was > 100 µM (inactive).

As for `[N-]=[N+]=Nc1c([N+](=O)[O-])c(=O)n(-c2ccccc2)c2ccccc12`, the GI50 in the test on OVCAR-3 is 4.5 µM (inactive); in the test with HCT-15, 21.9 µM; in the test with MDA-MB-435, 21 µM (inactive); in the test with MOLT-4, 21.4 µM (inactive); in the test on 786-0, 19.5 µM (inactive); in the test on M14, 27.2 µM (inactive). For the same molecule, the GI50 was 22.5 µM (inactive) in the test with K562; 16.6 µM (inactive) in the test on PC-3; 21.7 µM (inactive) in the test with ACHN; 26.7 µM (inactive) in the test with KM12; 18.3 µM (inactive) in the test on OVCAR-4; 25.5 µM (inactive) in the test with NCI-H226. Besides, the GI50 is 21.5 µM (inactive) in the test on CAKI-1; 17.5 µM (inactive) in the test on LOX IMVI; 17 µM (inactive) in the test with Malme-3M; 17.9 µM (inactive) with SK-MEL-2; 16 µM (inactive) with RPMI-8226; 30.6 µM (inactive) in the test with NCI-H460. Also, the GI50 in the test on A498 is 73.5 µM (inactive).

Consider `O=C(COc1ccc(OCC(=O)N2C(=O)CC(=O)N(c3ccccc3)C2=S)cc1)N1C(=O)CC(=O)N(c2ccccc2)C1=S`, for which the GI50 is 88.5 µM with HCT-15; 76 µM (inactive) in the test with MDA-MB-435; 41.8 µM (inactive) in the test with MOLT-4; 56.1 µM (inactive) in the test on 786-0; 89.5 µM (inactive) in the test with M14; 52.1 µM (inactive) with K562. Moreover, the GI50 with PC-3 is 56.9 µM (inactive); in the test on ACHN, 66.7 µM (inactive); in the test on KM12, 27.4 µM (inactive); in the test on OVCAR-4, 44.4 µM (inactive); in the test on NCI-H226 it was 65.8 µM (inactive); in the test on CAKI-1 it was 0.851 µM (active). In addition, the GI50 in the test on Malme-3M was > 100 µM (inactive); in the test on SK-MEL-2, 43.4 µM (inactive); in the test on RPMI-8226 it was 31.1 µM (inactive); with NCI-H460, 40.9 µM (inactive); with A498 it was 80.2 µM (inactive).

As to `N#Cc1nc(-c2cnccn2)oc1N`, the GI50 in the test with HCT-15 is greater than 100 µM; with MDA-MB-435, > 100 µM (inactive); with MOLT-4 it was > 100 µM (inactive); with 786-0, > 100 µM (inactive); in the test on M14, > 100 µM (inactive); in the test with K562, > 100 µM (inactive). In addition, the GI50 in the test with PC-3, in the test with ACHN, with KM12, with CAKI-1, in the test on LOX IMVI and in the test with SK-MEL-2 was > 100 µM (inactive) throughout. Moreover, the figures for the GI50 with RPMI-8226, with A498 and in the test on HL-60 were 49.7 µM (inactive), > 100 µM (inactive) and > 100 µM (inactive), respectively.

Consider `COC(=O)C(N)CCCC(N)C(=O)NC(C)C(=O)NC(CCC(=O)NCCCNc1ccc([N+](=O)[O-])c2[nH]c3ccccc3c(=O)c12)C(N)=O` (centres undefined), for which the GI50 in the test on OVCAR-3 is 10.8 µM (inactive); in the test on HCT-15 it was 3.67 µM; in the test on MDA-MB-435 it was 5.01 µM (inactive); in the test on 786-0, 4.53 µM (inactive); in the test with M14, 5.4 µM (inactive); in the test with K562, 6.67 µM (inactive). In addition, the GI50 was 5.56 µM (inactive) with PC-3; 3.68 µM (inactive) in the test on ACHN; 4.91 µM (inactive) in the test on KM12; 6.15 µM (inactive) in the test with OVCAR-4; 9.55 µM (inactive) in the test with NCI-H226; 6.64 µM (inactive) with CAKI-1. The GI50 with LOX IMVI is 3.24 µM (inactive); in the test with SK-MEL-2, 16.8 µM (inactive); in the test on RPMI-8226, 3.19 µM (inactive); in the test on NCI-H460, 3.59 µM (inactive); in the test on A498, 15.1 µM (inactive).

On to `O=C1Nc2ccc(S(=O)(=O)O)cc2/C1=N/Nc1ccccc1[N+](=O)[O-]`, for which the GI50 is > 100 µM (inactive) in the test with OVCAR-3; 84.1 µM in the test on HCT-15; > 100 µM (inactive) with MDA-MB-435; > 100 µM (inactive) with MOLT-4; > 100 µM (inactive) in the test with 786-0; > 100 µM (inactive) in the test on M14. Moreover, the GI50 with K562 was 5.64 µM (inactive); in the test on PC-3, > 100 µM (inactive); in the test on ACHN, > 100 µM (inactive); in the test on KM12, > 100 µM (inactive); with OVCAR-4, > 100 µM (inactive); with NCI-H226, > 100 µM (inactive). Further, the GI50 in the test with CAKI-1, with LOX IMVI, in the test with Malme-3M, with SK-MEL-2, in the test on RPMI-8226 and in the test on NCI-H460 was > 100 µM (inactive) throughout. Also, the GI50 in the test with A498 is 70.1 µM (inactive).

For `CCCCCCC(O)C(O)CCC(O)C1CCC(CCCCC(O)CC2=CC(C)OC2=O)O1` (centres undefined) [ACETOGENINS], the GI50 in the test on OVCAR-3 is 1.71 µM (inactive); with HCT-15 it was 4.53 µM; with MDA-MB-435, 17.4 µM (inactive); with MOLT-4 it was 2.59 µM (inactive); in the test with 786-0, 6.58 µM (inactive); in the test with M14 it was 3.15 µM (inactive). For the same molecule, the GI50 in the test on K562 was 1.82 µM (inactive); with PC-3, 2.78 µM (inactive); with ACHN, 1.19 µM (inactive); with KM12 it was 2.15 µM (inactive); in the test with OVCAR-4, 17.5 µM (inactive); in the test with NCI-H226 it was 1.74 µM (inactive). In addition, the GI50 in the test on CAKI-1 was 2.2 µM (inactive); in the test with LOX IMVI, 1.39 µM (inactive); in the test on Malme-3M it was 17 µM (inactive); in the test on SK-MEL-2 it was 2.99 µM (inactive); in the test with RPMI-8226 it was 7.41 µM (inactive); in the test on NCI-H460, 2.59 µM (inactive). Also, the GI50 in the test with A498 is 17.5 µM (inactive).
